According to PubChem BioAssay AID330 (DTP/NCI, 2004):
Inconclusive results and toxic doses are left out. How the source made its calls: active means survival T/C of 150% or more; inactive means T/C below 125% in these data. Peptide text beside a SMILES is read from it. * marks the point of attachment. Cbz = O=C(OCc1ccccc1)*

Test system: P388 leukemia ip, CD2F1 mice, survival T/C
Experiment: NCI In Vivo Anticancer Drug Screen. Data for tumor model P388 Leukemia (intraperitoneal) in CD2F1 (CDF1) mice
Settings: endpoint: median survival time, higher = longer survival
In short: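 Mice carrying the transplanted tumor received test compound or vehicle. Survival was recorded in each group, and the value is the treated-group measurement divided by that of the vehicle-treated control group.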

[1] = dose: 50.0 mg/kg/injection, schedule: Q01DX005 (ip), vehicle: saline with Tween-80
[2] = dose: 100.0 mg/kg/injection, schedule: Q01DX005 (ip), vehicle: saline with Tween-80
[3] = dose: 200.0 mg/kg/injection, schedule: Q01DX005 (ip), vehicle: saline with Tween-80
[4] = dose: 60.0 mg/kg/injection, schedule: Q01DX005 (ip), vehicle: saline
[5] = dose: 120.0 mg/kg/injection, schedule: Q01DX005 (ip), vehicle: saline
[6] = dose: 100.0 mg/kg/injection, schedule: Q04DX002 (ip), vehicle: saline with Tween-80
[7] = dose: 50.0 mg/kg/injection, schedule: Q01DX009 (ip), vehicle: saline with Tween-80
[8] = dose: 100.0 mg/kg/injection, schedule: Q01DX009 (ip), vehicle: saline with Tween-80
[9] = dose: 200.0 mg/kg/injection, schedule: Q01DX009 (ip), vehicle: saline with Tween-80
[10] = dose: 25.0 mg/kg/injection, schedule: Q01DX009 (ip), vehicle: other

Measured: T/C

CCOC(=O)C1=C(C)NC(C)=C(C(=O)OCC)C1(C)C
inactive: [1] 104 % of control | [2] 100 % of control | [3] 100 % of control

O=C(O)C1C2OC(C(Cl)C2Cl)C1C(=O)O (configuration not stated)
inactive: dose: 15.0 mg/kg/injection, schedule: Q01DX005 (ip), vehicle: saline 97 % of control | dose: 30.0 mg/kg/injection, schedule: Q01DX005 (ip), vehicle: saline 94 % of control | [4] 95 % of control | [5] 87 % of control

CN1C(=O)C(CC(=O)O)NC1=S (configuration not stated)
inactive: [4] 101 % of control | [5] 103 % of control | dose: 240.0 mg/kg/injection, schedule: Q01DX005 (ip), vehicle: saline 104 % of control

Cc1c(-c2cccc(Cl)n2)nc2ccccc2c1C(=O)O
inactive: [6] 99 % of control | dose: 200.0 mg/kg/injection, schedule: Q04DX002 (ip), vehicle: saline with Tween-80 99 % of control | dose: 400.0 mg/kg/injection, schedule: Q04DX002 (ip), vehicle: saline with Tween-80 99 % of control

CCCCCCCCCc1cc(=O)[nH]c(=O)[nH]1
inactive: dose: 100.0 mg/kg/injection, schedule: Q01DX001 (ip), vehicle: Klucel (hydroxypropylcellulose) (HPC) 96 % of control | dose: 200.0 mg/kg/injection, schedule: Q01DX001 (ip), vehicle: Klucel (hydroxypropylcellulose) (HPC) 96 % of control | dose: 400.0 mg/kg/injection, schedule: Q01DX001 (ip), vehicle: Klucel (hydroxypropylcellulose) (HPC) 94 % of control

N#Cc1c(C(=O)NN)cc(-c2ccc3ccccc3c2)[nH]c1=O
inactive: [1] 100 % of control | [2] 98 % of control

Cc1ccc(-n2c(=O)c3[nH]c4ccccc4sc=3c2=O)cc1
inactive: [1] 102 % of control | [2] 95 % of control | [3] 91 % of control

CC(C)(CO)COC1OCN(C(C)(C)C)CC1(C)C (configuration not stated)
inactive: [7] 100 % of control | [8] 110 % of control | [9] 112 % of control

Cc1ccc(S(=O)(=O)N(CCCc2ccccc2)S(=O)(=O)c2ccc(C)cc2)cc1
inactive: dose: 50.0 mg/kg/injection, schedule: Q01DX009 (ip), vehicle: Klucel (hydroxypropylcellulose) (HPC) 96 % of control | dose: 100.0 mg/kg/injection, schedule: Q01DX009 (ip), vehicle: Klucel (hydroxypropylcellulose) (HPC) 97 % of control | dose: 200.0 mg/kg/injection, schedule: Q01DX009 (ip), vehicle: Klucel (hydroxypropylcellulose) (HPC) 100 % of control

CCOC(=O)c1cc2c(ccn2OC)[nH]1
inactive: dose: 100.0 mg/kg/injection, schedule: Q04DX003 (ip), vehicle: saline with Tween-80 102 % of control

O=C(O)C(Cc1ccc(O)cc1)NC(=O)C1CCCN1C(=O)OCc1ccccc1 (stereo not drawn) (Cbz-Pro-Tyr-OH; configuration not given here)
inactive: dose: 50.0 mg/kg/injection, schedule: Q01DX005 (ip), vehicle: saline 96 % of control | dose: 100.0 mg/kg/injection, schedule: Q01DX005 (ip), vehicle: saline 96 % of control | dose: 200.0 mg/kg/injection, schedule: Q01DX005 (ip), vehicle: saline 96 % of control

O=C(O)c1cc(O)c(O)c(OC(=O)c2cc(O)c(O)c(O)c2CNc2ccc3cc(S(=O)(=O)O)cc(S(=O)(=O)O)c3c2)c1
inactive: [1] 110 % of control | [2] 115 % of control | [3] 112 % of control

CCN(CC)CCOc1ccc(NC2=C(Cl)C(=O)C(Nc3ccc(OCCN(CC)CC)cc3)=C(Cl)C2=O)cc1
inactive: dose: 3.13 mg/kg/injection, schedule: Q01DX009 (ip), vehicle: saline + alcohol 103 % of control | dose: 6.25 mg/kg/injection, schedule: Q01DX009 (ip), vehicle: saline + alcohol 110 % of control | dose: 12.5 mg/kg/injection, schedule: Q01DX009 (ip), vehicle: saline + alcohol 112 % of control | dose: 12.5 mg/kg/injection, schedule: Q01DX009 (ip), vehicle: saline with Tween-80 105 % of control | dose: 25.0 mg/kg/injection, schedule: Q01DX009 (ip), vehicle: saline with Tween-80 106 % of control

N=C(N)c1ccc(-c2[nH]c3cc(C(=N)N)ccc3c2N)cc1
inactive: dose: 6.25 mg/kg/injection, schedule: Q04DX003 (ip), vehicle: saline 86 % of control | dose: 12.5 mg/kg/injection, schedule: Q04DX003 (ip), vehicle: saline 88 % of control | dose: 25.0 mg/kg/injection, schedule: Q04DX003 (ip), vehicle: saline 92 % of control

CNC(=O)N(C)C1=NC(O)(c2ccccc2)C(c2ccccc2)=N1 (configuration not stated)
inactive: [6] 87 % of control

COc1cccc2c1C(=O)c1c(O)c3c(c(O)c1C2=O)CC(O)(C1(O)CSC(C)=N1)CC3O (configuration not stated)
inactive: dose: 1.56 mg/kg/injection, schedule: Q01DX009 (ip), vehicle: other 102 % of control | dose: 3.13 mg/kg/injection, schedule: Q01DX009 (ip), vehicle: other 104 % of control | dose: 6.25 mg/kg/injection, schedule: Q01DX009 (ip), vehicle: other 104 % of control | dose: 12.5 mg/kg/injection, schedule: Q01DX009 (ip), vehicle: other 105 % of control | [10] 98 % of control | dose: 25.0 mg/kg/injection, schedule: Q01DX009 (ip), vehicle: water 101 % of control | dose: 50.0 mg/kg/injection, schedule: Q01DX009 (ip), vehicle: water 101 % of control | dose: 100.0 mg/kg/injection, schedule: Q01DX009 (ip), vehicle: water 121 % of control

Cc1ccc(NC(=S)N/N=C\c2nc3ccccc3c3ccccc23)cc1
inactive: dose: 100.0 mg/kg/injection, schedule: Q04DX002 (ip), vehicle: Klucel (hydroxypropylcellulose) (HPC) 98 % of control | dose: 200.0 mg/kg/injection, schedule: Q04DX002 (ip), vehicle: Klucel (hydroxypropylcellulose) (HPC) 92 % of control | dose: 400.0 mg/kg/injection, schedule: Q04DX002 (ip), vehicle: Klucel (hydroxypropylcellulose) (HPC) 93 % of control

CNC(=S)NNc1ccc(Cl)c(Cl)c1
inactive: [10] 112 % of control | dose: 50.0 mg/kg/injection, schedule: Q01DX009 (ip), vehicle: other 108 % of control

CC(O)(C#Cc1ccccc1)c1nc2ccccc2s1 (configuration not stated)
inactive: dose: 60.0 mg/kg/injection, schedule: Q01DX005 (ip), vehicle: Klucel (hydroxypropylcellulose) (HPC) 101 % of control | dose: 120.0 mg/kg/injection, schedule: Q01DX005 (ip), vehicle: Klucel (hydroxypropylcellulose) (HPC) 101 % of control | dose: 240.0 mg/kg/injection, schedule: Q01DX005 (ip), vehicle: Klucel (hydroxypropylcellulose) (HPC) 100 % of control

Fc1ccc2nc3ccccc3c(SCCNCCSc3c4ccccc4nc4ccc(F)cc34)c2c1
inactive: dose: 60.0 mg/kg/injection, schedule: Q01DX005 (ip), vehicle: saline with Tween-80 97 % of control | dose: 120.0 mg/kg/injection, schedule: Q01DX005 (ip), vehicle: saline with Tween-80 89 % of control

COC1C/C(=N\OC(C)=O)C2OC(c3ccccc3)OCC2O1 (configuration not stated)
inactive: [7] 93 % of control | [8] 96 % of control | [9] 95 % of control

COc1ccc(C2CC(=O)C(C(=O)OC3CCCCC3)C2c2ccc(OC)cc2)cc1 (configuration not stated)
inactive: dose: 12.5 mg/kg/injection, schedule: Q01DX001 (ip), vehicle: Klucel (hydroxypropylcellulose) (HPC) 92 % of control | dose: 25.0 mg/kg/injection, schedule: Q01DX001 (ip), vehicle: Klucel (hydroxypropylcellulose) (HPC) 93 % of control | dose: 50.0 mg/kg/injection, schedule: Q01DX001 (ip), vehicle: Klucel (hydroxypropylcellulose) (HPC) 86 % of control

C1CCCN(N2CCOCC2)CC1
inactive: dose: 100.0 mg/kg/injection, schedule: Q01DX001 (ip), vehicle: saline 104 % of control | dose: 200.0 mg/kg/injection, schedule: Q01DX001 (ip), vehicle: saline 98 % of control | dose: 400.0 mg/kg/injection, schedule: Q01DX001 (ip), vehicle: saline 101 % of control

C/C(C#N)=C/c1ccccc1
inactive: [7] 104 % of control | [8] 118 % of control
